These results are taken from patent US11549134B2, “Modified amadoriase and method for producing the same, agent for improving surfactant resistance of amadoriase and composition for measuring HbA1c using the same” (Kikkoman Corporation, priority 2013, dated 2023).

Experiment [1] concerns CFP-T7. As to the kind of experiment: Surfactant resistance of amadoriase in presence of buffering agents. The class given is biochemical, genus Coniochaeta. To be noted: for CFP-T7 Residual Activity (%): 0.01% CTAC, purified CFP-T7; for amadoriase stabilizing effect of the buffer (in words): CFP-T7 in the presence of surfactant. The procedure:
In the above surfactant resistance measuring method, the residual activity of an amadoriase is measured by using various buffers in place of a 30 mM MES/21 mM Tris buffer solution. In this manner, the contribution of the buffer to the amadoriase residual activity can be evaluated. For example, in place of the 30 mM MES/21 mM Tris buffer solution (pH 6.5), e.g., a phosphate buffer solution (pH 7.0), a citrate buffer solution (pH 6.0), a HEPES buffer solution (pH 7.0) or an ACES buffer solution (pH 7.0) can be used. Other conditions and procedure can be the same as in the above surfactant resistance measuring method.
It was studied whether the surfactant resistance of an amadoriase is enhanced or not when a buffering agent other than a 30 mM MES/21 mM Tris buffering agent (pH 6.5) was used. Using CFP-T7 purified as described above as a sample, the final concentration of CTAC was set at 0.01% to evaluate the surfactant resistance of CFP-T7 according to the measurement method for surfactant resistance in Example 1 in the presence of any of various buffering agents, specifically a phosphate buffering agent containing phosphoric acid and potassium phosphate (pH 7.0), a citrate buffering agent containing citric acid and sodium citrate (pH 6.0), an MES buffering agent containing MES and it sodium salt (pH 7.0), an HEPES buffering agent containing HEPES and its sodium salt (pH 7.0), and an ACES buffering agent containing ACES and its sodium salt (pH 7.0), in place of the 30 mM MES/21 mM Tris buffering agent (pH 6.5).

Experiment [2] deals with CFP-T7. As to the kind of experiment: Surfactant resistance of amadoriase during addition of each stabilizer (CFP-T7). The settings on record: 500 mM HEPES (pH 7.0), 0.01% CTAC. The class given is biochemical, genus Coniochaeta. The procedure: In the above surfactant resistance measuring method, various stabilizers are added and the residual activity of an amadoriase is measured in order to evaluate the effect of the stabilizers. […] The concentration sufficient to provide a buffer capacity to a solution refers to the concentration at which pH is maintained within a predetermined range (for example pH5 to 10, pH6 to 8) without having pH change due to other reagents added to the solution. A concentration insufficient to provide a buffer capacity to a solution refers to the concentration at which pH changes by addition of other reagents to the solution and pH falls outside a particular range. These concentrations vary depending upon the type and amount of other reagents to be added to a solution; however, a person skilled in the art can appropriately determine the concentration by conventional methods. Other conditions and procedure can be the same as in the above surfactant resistance measuring method.
It was studied whether or not the addition of any of various stabilizers enhanced the surfactant resistance of an amadoriase. Phosphoric acid, a tricarboxylic acid (e.g., citric acid), a dicarboxylic acid (e.g., malic acid, maleic acid, citraconic acid, malonic acid, glutaric acid, or tartaric acid), a monpcarboxylic acid (e.g., acetic acid), MES, MOPS, MOPSO, or ammonium sulfate was used as a stabilizer. As a Comparative Example, CHES was used. To prevent change in pH when adding the stabilizer, 500 mM HEPES (pH 7.0) was used as a buffer solution; CFP-T7 purified as described above was used as a sample; the final concentration of CTAC was set at 0.01%; and any of the stabilizers was further added to evaluate the surfactant resistance of CFP-T7 according to the measurement method for surfactant resistance in Example 1. Using a 500 mM HEPES (pH 7.0) buffering agent and CFP-D2 purified as described above as a sample, any of the stabilizers was further added, and the surfactant resistance of CFP-D2 was evaluated according to the measurement method for surfactant resistance in Example 1 although under more harsh surfactant treatment conditions in which the final concentration of CTAC was set at 0.08% and the treatment temperature at 37° C.

A further experiment concerns PnFX. Briefly: Surfactant resistance of PnFX during addition of each stabilizer. The class given is biochemical, Phaeosphaeria nodorum. To be noted: Stabilizer 20 mM; 300 mM HEPES (pH 7.0); 0.04% CTAC. The procedure: The same stabilizers as those described above were used as stabilizers; 300 mM HEPES (pH 7.0) was used as a buffering agent to prevent a change in pH when the stabilizers was each added; PnFX purified as described above was used as a sample; the final concentration of CTAC was set at 0.04%; and the surfactant resistance of PnFX was evaluated as described above.

Experiment [3] can be described thus: Measurement of fructosyl peptide sample (αFVH) under mixing of CTAC, change in absorbance at 751 nm. The settings on record: for Amount of Change in Absorbance at Wavelength of 751 nm under Mixing of Each Concentration of CTAC: as in Example 5, Table 7. Format: biochemical. The method, then: The purified enzyme of CFP-T7 and CFP-D7 obtained in Example 3-2 was used to measure a sample as shown below. The activity values of CFP-T7 and CFP-D7 were determined using (reagent 1) adjusted to pH 7.0 with αFVH at a final concentration of 5 mM as a substrate according to the method for measuring amadoriase activity.
(Reagent 4) αFVH (125 mg) was dissolved in ion-exchanged water, the volume of the solution was fixed to 10 ml, and thereby a 30 mM substrate solution was obtained. In addition, the resultant was diluted by 1/714 with a CTAC solution to provide a 42 μM αFVH/0% to 0.2% CTAC solution.
(Reagent 6) (50 μl) was added to a mixed solution of 135 μl of (reagent 5) warmed at 37° C. for 5 minutes in advance and 25 μl of the sample prepared in (11) above to start reaction, and absorbance at a wavelength of 751 nm after reaction at 37° C. for 5 minutes was measured using an automated analyzer, Bio Majesty JCA-BM1650 (from JEOL Ltd.). Absorbance (reagent blank) at a wavelength of 751 nm measured by a similar operation for (reagent 4) prepared using ion-exchanged water in place of the substrate solution was used as a control to calculate the amount of change in absorbance (difference) when each sample was measured, using the following equation. The final concentration of a colorimetric substrate, DA-64, was 0.15 mM; the final concentration of αFVH in the case of the presence of a substrate was 5 μM; and the length (optical path) of the cell used for absorbance measurement was 1 cm. Amount of change in absorbance=ΔAes−Ae0
The amount of change in absorbance when αFVH/0% to 0.2% CTAC were used as samples was calculated.
The purified preparations of amadoriases obtained as described above were used as samples to measure αFVH under the mixing of CTAC using PnFX and NvFX as in Example 5.

Where [4] appears, read: Buffer Solution 100 mM, pH 7.0 (citrate pH 6.0).

In the case of `O=S(=O)(O)CCN1CCN(CCO)CC1` [HEPES, 4-2-hydroxyethyl-1-piperazine-ethanesulfonic acid, reference compound], the “CFP-T7 Residual Activity (%)” value is 13.2% in the experiment on CFP-T7 [1] (Buffer Solution 50 mM, pH 7.0 (citrate pH 6.0)); 13.2% in the experiment with CFP-T7 [1] (setting [4]); 12.2% in the experiment on CFP-T7 [1] (Buffer Solution 150 mM, pH 7.0); 9.6% with CFP-T7 [1] (Buffer Solution 300 mM, pH 7.0). Besides, the “amadoriase stabilizing effect of the buffer (in words)” value is “does not have an amadoriase stabilizing effect” in the experiment with CFP-T7 [1] and “not observed” in the experiment with CFP-T7 [1] (listed as HEPES buffering agent).
With `O=S(=O)(O)CC(O)CN1CCOCC1` (centres unmarked) [MOPSO, 2-hydroxy-3-morpholino-propanesulfonic acid], the “CFP-T7 Residual Activity (%)” value with CFP-T7 [2] (Stabilizer 10 mM, Table 9-2) is on record as 9.0%; in the experiment with CFP-T7 [2] (Stabilizer 20 mM, Table 9-2), 23.5%.
With `O=C(O)CCCC(=O)O` [Glutarate, glutaric acid], the “CFP-T7 Residual Activity (%)” value was determined as 4.5% with CFP-T7 [2] (Stabilizer 2 mM, Table 9-2) and 55.9% in the experiment with CFP-T7 [2] (Stabilizer 10 mM, Table 9-2).
For `O=C(O)CC(=O)O` [Malonate, malonic acid] the same measures were 10.8% and 77.3%.
In the case of `O=C(O)/C=C\C(=O)O` [Maleate, maleic acid], the “CFP-T7 Residual Activity (%)” value worked out at 15.5% in the experiment on CFP-T7 [2] (Stabilizer 2 mM, Table 9-2) and 81.5% in the experiment with CFP-T7 [2] (Stabilizer 10 mM, Table 9-2).
On to `CC(=O)O` [Acetate, acetic acid], for which the “CFP-T7 Residual Activity (%)” value was 8.9% in the experiment on CFP-T7 [2] (Stabilizer 10 mM, Table 9-1); 20.7% in the experiment on CFP-T7 [2] (Stabilizer 20 mM, Table 9-1); 52.4% with CFP-T7 [2] (Stabilizer 50 mM, Table 9-1). The “PnFX Residual Activity (%)” value with PnFX turned out to be 42.6%.
Regarding `O=S(=O)(O)CCNC1CCCCC1` [CHES, N-cyclohexyl-2-aminoethane sulfonic acid, reference compound], the “stabilizing action of the stabilizer (in words)” value with CFP-T7 [2] (CFP-T7) was “did not have any stabilizing action”. Further, in the experiment on CFP-T7 [2] (Stabilizer 20 mM, Table 9-2), the “CFP-T7 Residual Activity (%)” value amounted to 3.0%.
For the molecule `C/C(=C/C(=O)O)C(=O)O` [Citraconate, citraconic acid], the “CFP-T7 Residual Activity (%)” value with CFP-T7 [2] (Stabilizer 2 mM, Table 9-2) is 18.5%; in the experiment with CFP-T7 [2] (Stabilizer 10 mM, Table 9-2) it was 89.1%.
On to `O=C(O)C(O)C(O)C(=O)O` (centres unmarked) [Tartrate, tartaric acid], for which the “CFP-T7 Residual Activity (%)” value in the experiment on CFP-T7 [2] (Stabilizer 2 mM, Table 9-2) turned out to be 5.3%; in the experiment on CFP-T7 [2] (Stabilizer 10 mM, Table 9-2) it was 70.0%.
Regarding `NC(=O)CNCCS(=O)(=O)O` [ACES, N-(2-acetamido)-2-aminoethanesulfonic acid], the “CFP-T7 Residual Activity (%)” value in the experiment on CFP-T7 [1] (Buffer Solution 20 mM, pH 7.0 (citrate pH 6.0)) was found to be 15.6%; with CFP-T7 [1] (setting [4]), 16.4%; in the experiment on CFP-T7 [1] (Buffer Solution 200 mM, pH 7.0) it was 22.1%.

B1: NvFX: ketoamine oxidase derived from Neocosmospora vasinfecta, SEQ ID NO: 38 (protein, listed as Neocosmospora vasinfecta)
chain: MTTPRKETTVLIIGGGGTIGSSTALHLLRAGYTPSNITVLDTYPIPSAQSAGNDLNKIMGIRLRNKVDLQLSLEARDMWRNDALFRPFFHNTGRLDCESSAEGVEGLRREYQKLVEAGVGLEETHEWLDSEEAILEKAPLLQREEIEGWKAIWSEEGGWLAAAKAINAIGEELQRQGVRFGFGGAGSFKRPLFADDGTTCIGVETVDGTQYHADKVVLAAGAWSPALVDLEEQCCSKAWVYAHMQLTPEEAAVYKGCPVVYHGDVGFFFEPNENGVIKVCDEFPGFTRFKQHQPYGAPAPKPVSVPRSHAKHPTDTYPDASEESIKRAVSTFLPRFKDKPLFNRALCWCTDTADSALLICEHPRWKNFILATGDSGHSFKLLPIIGKHVVELVEGRLADDLAEAWRWRPGQGDARKSIRAAPAKDLADMPGWKHDQDSESR
With B1, in experiment [3], the “measurement of αFVH under the mixing of CTAC (in words)” value is “αFVH could not accurately be measured”. Further, the “Amount of Change in Absorbance at Wavelength of 751 nm under Mixing of Each Concentration of CTAC” value in experiment [3] (Mixing of CTAC 0%) was 0.118; in experiment [3] (Mixing of CTAC 0.01%), 0.013; in experiment [3] (Mixing of CTAC 0.02%) it was 0.013; in experiment [3] (Mixing of CTAC 0.04%) it was 0.007; in experiment [3] (Mixing of CTAC 0.06%) it was 0.004; in experiment [3] (Mixing of CTAC 0.1%), 0.003. Further, the “Amount of Change in Absorbance at Wavelength of 751 nm under Mixing of Each Concentration of CTAC” value in experiment [3] (Mixing of CTAC 0.2%) stood at 0.001.
